Key:
Assay type in all cases: cell-based
[1] = test system: ketoconazole-resistant Candida albicans ATCC 64124; assay: Semi-quantitative analysis of cell wall carbohydrates chitin, beta glucan, mannan; conditions: 24 h treatment
Procedure: Semi-quantitative analysis was performed for cell wall carbohydrates chitin, beta glucan, and mannan. After 24 h treatment, with dressings alone or in combination with ketoconazole, 1 ml yeast cells were washed once with 1 ml 1X PBS followed by chitin staining with Calcofluor White (Sigma Aldrich) (25 μg/ml) for 10 min; beta glucan staining with Aniline Blue (Anaspec) (0.05%) for 15 min; mannan staining with Concanavalin A-Texas Red conjugate (Life Technologies) (25 μg/ml) for 40 min. All stainings were performed under dark condition. Post-staining, cells were washed once with 1 ml 1X PBS and observed under 63X magnification. Microscopic images were used for measuring fluorescence intensities using ZEN blue software.

[2] = test system: ketoconazole-resistant Candida albicans ATCC 64124; assay: Agar lawn assay with embedded dressings; conditions: in words
Procedure: (§1) An agar lawn assay assessed fungicidal activity. Dressings (2′×2′) were moistened with sterile YPD broth and placed in empty Petri plates with the conducting side of the dressing facing up. One milliliter of log phase C. albicans cells (1×10^8 cells) was thoroughly mixed in sterile molten YPD agar (9 ml) and poured evenly in plates with dressings. […] Plate images were captured and the area of growth inhibition in these plates was calculated with ImageJ software. Metabolic state was assessed by FUN1 staining. […] Post treatments with electroceutical dressings, an aliquot of yeast cells (1×10^8) was taken and washed with 1 ml of 1X PBS followed by treatment with 100 μl FUN®1 (1:1000; freshly diluted in 1X PBS) for 40 min in dark condition. Cells were then washed once with 1 ml of 1X PBS followed by counter staining with 100 μl Calcofluor White (25 μg/ml) for 10 min in dark conditions. Post counter staining cells were again washed with 1 ml 1X PBS, an aliquot of cells was trapped between a cover glass and glass slide and observed at 63X. Images captured at this magnification were analyzed using ZEN blue software to calculate the ratio of red and green fluorescence intensities for two regions of interest (ROI) per image (10 ROIs per group per technical replicate). Three technical replicates were assayed for each experimental group; six biological replicates.

[3] = test system: ketoconazole-resistant Candida albicans ATCC 64124; assay: Cell membrane potential changes, DiBAC4(3)/PI staining, flow cytometry; conditions: in words; flow cytometry and microscopy
Procedure: Cell membrane potential changes were assessed by DiBAC4(3) staining. Candida albicans cells were cultured in liquid media (YPD broth), with or without dressings or ketoconazole. At respective time intervals, an aliquot of cells (1×10^8) was taken and washed with 1 ml 1X PBS followed by treatment with either 200 μl 10 μM DiBAC4(3) [Bis-(1,3-dibutylbarbituric acid) trimethine oxonol] (Anaspec) [for DiBAC4(3) single stained controls] or 10 μM propidium iodide (Sigma Aldrich) [for PI single stained controls] or a combination of both stains. Heat-killed cells (1×10^8; treated at 100° C. for 30 min) and cells treated with Amphotericin B (3 μg/ml) (Sigma
Aldrich) for 6 h were used as controls for dual stain positive and DiBAC4(3) only positive cells, respectively.
Post staining, cells were washed with 1XPBS followed by flow cytometry (with FL1-FITC for DiBAC4(3) and FL2-PE filter for PI) (10,000 events per sample) to assess dual stain positive cells in control and test samples. For flow cytometry, control and treated cells stained only with single fluorescent stains were also run separately to check individual staining patterns. Flow cytometry data were analyzed using FlowJo software and graphically represented. Scatter plots with ratio of fluorescence intensities through FL1-FITC filter and FL2-PE filter were plotted to understand cell membrane depolarization mechanism in treated cells. […]

[4] = test system: ketoconazole-resistant Candida albicans ATCC 64124; assay: Ultrastructure analysis (TEM) for cell wall thickness; conditions: after 24 h; compared to control cells
Procedure: Ultrastructure analysis was performed as follows. After 24 h of respective treatments in YPD broth, C. albicans cells were initially fixed overnight with 500 μl 3% glutaraldehyde/0.1 M phosphate buffer; the fixative was changed to same fixative with 0.15% tannic acid for one hour. After three rinses in buffer, the specimens were post-fixed with 1% osmium tetroxide/0.1 M phosphate buffer for one hour and then rinsed multiple times with distilled water, before en bloc staining with 1% uranyl acetate in distilled water for one hour. After multiple rinses in distilled water, standard dehydration followed through a range of 70-100% ethanol, then infiltration with acetone, to 50:50 acetone and embedding resin for 48 hours. Specimens were then embedded with 100% resin (Embed 812, Electron Microscopy Sciences, Hatfield, PA) and polymerized overnight. Sections were cut, 80-85 nm and placed on copper mesh grids and viewed on Transmission Electron Microscope (TEM) (ThermoFisher, Tecnai Spirit, Hillsoboro OR) and images taken with CCD camera (Advanced Microscopy Techniques Danvers MA). Analysis of cell wall thickness was done with TEM images using ImageJ software.

[5] = test system: ketoconazole-resistant Candida albicans ATCC 64124; assay: In vitro yeast to hyphae transition assay; conditions: after 2 h incubation in hyphae-inducing medium
Procedure: Transition of C. albicans from yeast form to hyphal form was studied with hyphae inducing conditions (YPD broth with 10% fetal bovine serum and incubation at 37° C., static condition). Cells were cultured in 5 ml hyphae-inducing medium, with or without dressings or ketoconazole. An aliquot of cells (1 ml) was taken from all treatment groups at 6 h and 24 h. Hyphal induction and elongation was monitored microscopically (63X) and imaged at 6 h and 24 h. For hyphal length measurements, aliquots were taken after 2 h in hyphae-inducing medium and images were captured at 20X magnification. Hyphal lengths were measured from these images using Accuview software (50 measurements per experimental group, six biological replicates).

[6] = test system: ketoconazole-resistant Candida albicans ATCC 64124; assay: Efflux pump activity by Nile Red accumulation assay; conditions: within 30 min to 3 h of treatment; flow cytometry
Procedure: Three technical replicates were assayed for each experimental group; six biological replicates.

[7] = test system: ketoconazole-resistant Candida albicans ATCC 64124; assay: Metabolic state by FUN1 staining; conditions: in words
Procedure: as §1

[8] = test system: ketoconazole-resistant Candida albicans ATCC 64124; assay: Planktonic growth, absorbance at 600 nm; conditions: YPD broth; ketoconazole 100 μg/ml; versus control
Procedure: ATCC strain 64124 was maintained at 4° C. on yeast extract peptone dextrose (YPD) (BD™ Difco™) agar plates. Planktonic yeast cultures (seed inoculums) were initiated in 5 ml of YPD broth (BD™ Difco™) from a single colony of the yeast strain. Cells were incubated at 28° C., under shaker conditions (200 rpm) for 24 h, followed by initiation of master inoculums for respective experiments in 5 ml YPD broth (OD600nm ˜0.15). Yeast cells were incubated at 27° C. for all assays, except for hyphal transition experiments. For all assays, ketoconazole (Sigma Aldrich) was used at a final concentration of 100 μg/ml (dissolved in 100% methanol, stored at −20° C.).
The FDA-approved wireless electroceutical dressing (WED) Procellera (Ag—Zn dressing) (Vomaris Innovations Inc.) was the source of electric fields for treating C. albicans cells. This dressing has alternating circular regions of silver and zinc dots placed in proximity of 1 mm to each other generating electric fields in the range of 0.6-0.9 V (Banerjee et al., 2014; Banerjee et al., 2015). […] The effect of wound dressings on planktonic growth was assessed by culturing C. albicans in sterile 15 ml round bottom polypropylene tubes with 5 ml YPD broth in the presence of dressings. […] Post incubation for respective time intervals, 1 ml aliquots were taken from all groups and optical density (absorbance) was measured on a spectrophotometer at 600 nm.

## CC(=O)N1CCN(c2ccc(OCC3COC(Cn4ccnc4)(c4ccc(Cl)cc4Cl)O3)cc2)CC1 (centres unmarked) [ketoconazole]
[1]
  chitin content (Calcofluor white staining): increased chitin staining profile
[2]
  yeast growth in agar lawn assay: reduction in growth
[3]
  effect on cell membrane depolarization / damage: did not have any acute or prolonged effect
[4]
  change in cell wall thickness: thick cell walls
[5]
  hyphal length measurements: pseudohyphae formed
[6]
  Nile red accumulation / efflux pump activity: increased efflux pump activity
[7]
  FUN1 staining outcome (metabolic state, plasma membrane integrity): distinct intravacuolar structures
[8]
  planktonic growth measured by absorbance at 600 nm: almost equivalent

Reference: patent US20230346995A1, “USE OF ELECTRIC CURRENT OR FIELD TO MANAGE RISK OF INFECTION BY ANTIMICROBIAL-RESISTANT MICROORGANISMS” (THE TRUSTEES OF INDIANA UNIVERSITY, priority 2020, published 2023)
